Source: patent US8835472B2, “Compounds, pharmaceutical compositions and uses thereof” (Boehringer Ingelheim International GmbH, priority 2010, dated 2014)

What follows are molecules tested against human ACC2 (Homo sapiens (Human), UniProt O00763) (assay: ACC2 assay, spectrophotometric 384 well assay (NADH-linked, coupled lactate dehydrogenase/pyruvate kinase reaction)). Conditions: hACC2 construct lacking the 128 N-terminal amino acids; 25° C., 340 nm over 15 minutes.
Format: biochemical
Method: Spectrophotometric 384 Well Assay
Malonyl CoA formation by acetyl CoA carboxylases is stoichometrically linked to the consumption of ATP. ACC2 activity is measured in a NADH-linked kinetic method measuring ADP generated during the ACC reaction using a coupled lactate dehydrogenase/pyruvate kinase reaction.
For biological testing, a human ACC2 construct which lacks the 128 amino acids at the N-terminus for increased solubility (nt 385-6966 in Genbank entry AJ575592) is cloned. The protein is then expressed in insect cells using a baculoviral expression system. Protein purification is performed by anion exchange.
All compounds are dissolved in dimethyl sulfoxide (DMSO) to a concentration of 10 mM.
Assay reactions are then carried out in 384-well plates, with hACC2 in an appropriate dilution and at final assay concentrations (f.c.) of 100 mM Tris (pH 7.5), 10 mM trisodium citrate, 25 mM KHCO3, 10 mM MgCl2, 0.5 mg/mL BSA, 3.75 mM reduced L-glutathione, 15 U/mL lactate dehydrogenase, 0.5 mM phosphoenolpyruvate, 15 U/mL pyruvate kinase, compounds at different concentrations at final DMSO concentrations of 1%.
The enzymatic reaction is then started by addition of a mixture of NADH, acetyl Coenzyme A (both 200 μM f.c.) and ATP (500 uM f.c.). The decrease of the optical density (slope S) is then determined at 25° C. at a wavelength of 340 nm over 15 minutes in a spectrophotometric reader.
Each assay microtiter plate contains wells with vehicle instead of compound as controls for the non-inhibited enzyme (100% CTL; ‘HIGH’) and wells without acetyl-CoA as controls for non-specific NADH degradation (0% CTL; ‘LOW’).
The slope S is used for calculation of % CTL=(S(compound)−S(‘LOW’))/(S(‘HIGH’)−S(‘LOW’))*100. Compounds will give values between 100% CTL (no inhibition) and 0% CTL (complete inhibition).
For IC50 value determination, the sample slope in the presence of the test compound after subtraction of the low controls (S(compound)−S(‘LOW’)) are used. An IC50 value is derived from the compound slopes at different dosages after subtraction of the low controls (S(compound)−S(‘LOW’)) by non-linear regression curve fitting (equation y=(A+((B−A)/(1+((C/x)^D))))).

human ACC2, sequence (O00763 129-2458): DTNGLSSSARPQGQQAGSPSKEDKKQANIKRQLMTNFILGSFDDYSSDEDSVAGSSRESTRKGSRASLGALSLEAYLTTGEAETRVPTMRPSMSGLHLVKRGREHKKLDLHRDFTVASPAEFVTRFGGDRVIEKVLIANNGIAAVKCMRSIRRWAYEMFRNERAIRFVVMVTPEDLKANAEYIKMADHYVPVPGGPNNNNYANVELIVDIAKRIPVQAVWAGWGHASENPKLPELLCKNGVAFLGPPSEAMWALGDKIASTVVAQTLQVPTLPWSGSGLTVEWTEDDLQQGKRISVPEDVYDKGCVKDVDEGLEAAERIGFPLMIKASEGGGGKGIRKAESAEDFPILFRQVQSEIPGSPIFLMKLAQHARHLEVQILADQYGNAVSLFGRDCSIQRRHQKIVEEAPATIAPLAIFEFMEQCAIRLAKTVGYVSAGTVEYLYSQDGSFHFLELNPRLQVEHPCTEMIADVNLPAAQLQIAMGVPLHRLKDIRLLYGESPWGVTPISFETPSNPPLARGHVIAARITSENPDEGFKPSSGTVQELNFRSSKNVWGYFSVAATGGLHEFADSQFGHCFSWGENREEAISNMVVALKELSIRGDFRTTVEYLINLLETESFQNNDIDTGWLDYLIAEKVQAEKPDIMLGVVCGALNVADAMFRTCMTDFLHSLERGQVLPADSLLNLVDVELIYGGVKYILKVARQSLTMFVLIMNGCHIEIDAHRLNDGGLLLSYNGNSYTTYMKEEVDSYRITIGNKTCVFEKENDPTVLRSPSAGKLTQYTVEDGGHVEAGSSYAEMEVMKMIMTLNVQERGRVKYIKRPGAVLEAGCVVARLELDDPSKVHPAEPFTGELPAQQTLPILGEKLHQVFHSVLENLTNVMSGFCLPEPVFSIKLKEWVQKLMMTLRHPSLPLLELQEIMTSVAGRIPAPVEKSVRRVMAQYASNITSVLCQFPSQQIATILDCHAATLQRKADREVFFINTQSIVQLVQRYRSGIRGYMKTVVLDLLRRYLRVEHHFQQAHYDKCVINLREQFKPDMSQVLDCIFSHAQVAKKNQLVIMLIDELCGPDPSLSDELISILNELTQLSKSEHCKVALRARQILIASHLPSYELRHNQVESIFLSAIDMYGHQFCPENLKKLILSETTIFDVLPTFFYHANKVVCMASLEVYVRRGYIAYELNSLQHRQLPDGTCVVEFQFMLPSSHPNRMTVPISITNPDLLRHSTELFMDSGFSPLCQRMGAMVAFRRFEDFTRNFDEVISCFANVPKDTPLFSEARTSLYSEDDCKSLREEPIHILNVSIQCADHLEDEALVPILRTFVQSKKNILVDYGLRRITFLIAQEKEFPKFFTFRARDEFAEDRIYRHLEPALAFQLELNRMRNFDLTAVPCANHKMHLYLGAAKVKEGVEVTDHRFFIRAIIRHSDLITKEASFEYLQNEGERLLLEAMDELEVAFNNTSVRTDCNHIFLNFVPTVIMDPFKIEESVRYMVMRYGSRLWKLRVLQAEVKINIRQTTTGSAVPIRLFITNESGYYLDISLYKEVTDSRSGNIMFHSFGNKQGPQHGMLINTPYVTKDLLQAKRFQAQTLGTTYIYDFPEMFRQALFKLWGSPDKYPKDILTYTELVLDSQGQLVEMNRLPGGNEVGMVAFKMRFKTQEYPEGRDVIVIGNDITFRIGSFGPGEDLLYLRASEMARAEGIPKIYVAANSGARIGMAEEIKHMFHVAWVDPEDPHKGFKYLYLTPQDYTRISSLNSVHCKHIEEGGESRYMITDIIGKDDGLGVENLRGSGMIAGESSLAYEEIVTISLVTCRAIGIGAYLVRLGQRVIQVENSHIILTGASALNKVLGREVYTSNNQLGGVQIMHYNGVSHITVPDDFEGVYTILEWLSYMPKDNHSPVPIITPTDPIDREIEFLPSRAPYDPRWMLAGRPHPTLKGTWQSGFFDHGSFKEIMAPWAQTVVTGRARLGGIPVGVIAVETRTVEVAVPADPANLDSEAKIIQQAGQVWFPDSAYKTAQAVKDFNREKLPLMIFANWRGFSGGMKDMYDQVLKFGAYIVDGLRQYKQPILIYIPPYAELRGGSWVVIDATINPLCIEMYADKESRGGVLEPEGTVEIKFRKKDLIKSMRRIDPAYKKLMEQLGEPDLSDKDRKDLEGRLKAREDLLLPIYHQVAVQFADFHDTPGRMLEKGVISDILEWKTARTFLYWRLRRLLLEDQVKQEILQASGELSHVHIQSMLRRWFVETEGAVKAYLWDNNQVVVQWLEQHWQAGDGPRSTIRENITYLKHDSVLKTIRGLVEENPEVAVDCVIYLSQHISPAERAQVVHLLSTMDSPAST

SMILES | IC50
CC(=O)NCC(C)(C)c1ccc(C#Cc2cnc(OC3CCC3)nc2)cc1 [Example 2.34] | 180 nM
CCCOc1ccc(C#Cc2ccc(C(C)(C)CNC(C)=O)cc2)cn1 [Example 2.35] | 130 nM
CCCOc1ccc(C#Cc2ccc(C(C)(C)CNC(C)=O)cc2)cc1 [Example 2.36] | 140 nM
CC(=O)NCC(C)(C)c1ccc(C#Cc2ccc(OCC3CC3)cc2)cc1 [Example 2.37] | 100 nM
CC(=O)NC(C)(C)c1ccc(C#Cc2ccnc(OC(C)C)c2)cc1 [Example 2.38] | 10100 nM
CC(=O)NC(C)(C)c1ccc(C#Cc2ccc(OC(C)C)nc2)cc1 [Example 2.39] | 21600 nM
CCCOc1ccc(C#Cc2ccc(C(C)(C)NC(C)=O)cc2)c(OC)c1 [Example 2.40] | 11800 nM
CCCOc1ccc(C#Cc2ccc(C(C)(C)NC(C)=O)cc2)cc1 [Example 2.41] | 25000 nM
CC(=O)NC(C)(C)c1ccc(C#Cc2ccc(OC3CCC3)cc2)cc1 [Example 2.42] | 24600 nM
CC(=O)NC(C)c1ccc(C#Cc2ccc(OC3CCCC3)nc2)cc1 (stereo not shown) [Example 2.43] | 450 nM
CC(=O)NC(C)c1ccc(C#Cc2ccc(OC(C)(C)C)cc2)cc1 (stereo not shown) [Example 2.44] | 420 nM
CC(=O)NC(C)c1ccc(C#Cc2ccc3c(c2)CCO3)cc1 (stereo not shown) [Example 2.45] | 250 nM
CCCc1ccc(C#Cc2ccc(C(C)NC(C)=O)cc2)cc1 (stereo not shown) [Example 2.46] | 410 nM
CC(=O)NC(C)c1ccc(C#Cc2ccc(OC(C)C)cc2)cc1 (stereo not shown) [Example 2.47] | 360 nM
CC(=O)NC(C)c1ccc(C#Cc2ccc(OCC(C)C)cc2)cc1 (stereo not shown) [Example 2.48] | 260 nM
CCCOc1ccc(C#Cc2ccc(C(C)NC(C)=O)cc2)cc1 (stereo not shown) [Example 2.49] | 250 nM
CC(=O)NC(C)c1ccc(C#Cc2ccc(OC(C)C)nc2)cc1 (stereo not shown) [Example 2.50] | 900 nM
CCCOc1ccc(C#Cc2ccc(C(C)NC(C)=O)cc2)c(OC)c1 (stereo not shown) [Example 2.51] | 1300 nM
CC(=O)NC(C)c1ccc(C#Cc2ccc(OC3CCCC3)cc2)cc1 (stereo not shown) [Example 2.52] | 190 nM

SMILES | IC50
CC(=O)NC(C)c1ccc(C#Cc2ccc(OC3CCC3)cc2)cc1 (stereo not shown) [Example 2.53] | 120 nM
CCCOc1ccc(C#Cc2ccc(C(C)NC(C)=O)cc2)cn1 (stereo not shown) [Example 2.54] | 1200 nM
CC(=O)NC(C)c1ccc(C#Cc2ccc(OC3CC3)cc2)cc1 (stereo not shown) [Example 2.55] | 70 nM
COc1ccc(C#Cc2ccc(CC(C)NC(=O)C3CC3)cc2)cc1 (stereo not shown) [Example 2.56] | 960 nM
CC(Cc1ccc(C#Cc2ccc(C(C)C)cc2)cc1)NC(=O)C1CC1 (stereo not shown) [Example 2.57] | 570 nM
COc1ncc(C#Cc2ccc(CC(C)NC(=O)C3CC3)cc2)c(OC)n1 (stereo not shown) [Example 2.58] | 3700 nM
CC(Cc1ccc(C#Cc2ccc(OC(F)F)cc2)cc1)NC(=O)C1CC1 (stereo not shown) [Example 2.59] | 2100 nM
CCOc1cc(C#Cc2ccc(CC(C)NC(=O)C3CC3)cc2)ccn1 (stereo not shown) [Example 2.60] | 690 nM
CC(Cc1ccc(C#Cc2ccc(OC(C)(C)C)cc2)cc1)NC(=O)C1CC1 (stereo not shown) [Example 2.61] | 2000 nM
CC(Cc1ccc(C#Cc2ccc3c(c2)CCO3)cc1)NC(=O)C1CC1 (stereo not shown) [Example 2.62] | 740 nM
CCCc1ccc(C#Cc2ccc(CC(C)NC(=O)C3CC3)cc2)cc1 (stereo not shown) [Example 2.63] | 460 nM
COc1ccc(C#Cc2ccc(CC(C)NC(=O)C3CC3)cc2)cn1 (stereo not shown) [Example 2.64] | 2800 nM
CC(Cc1ccc(C#Cc2ccc(OC(C)C)nc2)cc1)NC(=O)C1CC1 (stereo not shown) [Example 2.65] | 480 nM
CC(Cc1ccc(C#Cc2ccc(OC3CCCC3)nc2)cc1)NC(=O)C1CC1 (stereo not shown) [Example 2.66] | 230 nM
CC(Cc1ccc(C#Cc2ccc(C3CC3)cn2)cc1)NC(=O)C1CC1 (stereo not shown) [Example 2.67] | 7200 nM
CCCOc1ccc(C#Cc2ccc(CC(C)NC(=O)C3CC3)cc2)c(OC)c1 (stereo not shown) [Example 2.68] | 250 nM
COc1cc(C#Cc2ccc(CC(C)NC(=O)C3CC3)cc2)ccn1 (stereo not shown) [Example 2.69] | 2000 nM
CCCOc1ccc(C#Cc2ccc(CC(C)NC(=O)C3CC3)cc2)cn1 (stereo not shown) [Example 2.70] | 800 nM
